We go through five compounds from patent US20080319084A1, “Wrinkling Prevention or Remedy with Adam Activity Inhibiting Substance” (Shiseido Company, Ltd., priority 2004, published 2008).

One experiment relates to ADAM enzyme. Description: Screening of ADAM activity inhibiting substance: TPA-induced HB-EGF-AP release from HB-EGF-AP/HT-1080 cells. The experiment is classed as cell-based, human. As to conditions: 60 nM TPA, 60 minutes. How it is done: Firstly, the screening of a compound having the ADAM enzyme inhibiting activity was performed by use of HB-EGF-AP/HT-1080 (human fibrosarcoma-derived cultured cells HT-1080 having been modified so as to achieve forcible expression of a fusion protein, in which heat-resistant alkaline phosphatase (AP) has been added to an N terminal of human HB-EGF). On the surfaces of the cells of the used cell strain HB-EGF-AP/HT-1080, the HB-EGF entire length molecule is expressed in the form fused with the alkaline phosphatase. In cases where the cells are excited by a phorbol ester, the ADAM enzyme on the cell membrane surfaces is activated to cut the HB-EGF molecule. Since alkaline phosphatase has been bound to HB-EGF having been cut into the released form, in cases where the alkaline phosphatase activity in a culture supernatant is measured, the ADAM enzyme inhibiting activity of the compound is capable of being measured indirectly.
Specifically, HB-EGF-AP/HT-1080, in which the number of cells had been adjusted at 2.0×10^5 cells/ml, was sowed at a rate of 0.2 ml/well to a 96-well culture micro-plate and was cultured overnight at a temperature of 37° C. […] After the incubation was performed at the room temperature for two hours under a light blocking condition, the absorbance in each well at the wavelength of 405 nm was measured again. […]

Experiment [1] concerns finely wrinkled mouse model. Description: Evaluation of anti-wrinkling effects of ADAM activity inhibiting substances in finely wrinkled mouse model (visual score, wrinkle area). As to conditions: for mean value of the wrinkle score (visual judgment, 0 no wrinkle to 3 deep wrinkles): after four weeks, 1 mM TAPI-1 or 1% 4-methoxybenzohydroxamic acid in 50% aqueous ethanol, 100 μl after each tape stripping, vehicle 1.17; for mean value of the wrinkle area (%) versus vehicle: replica analysis after four weeks, 1 mM TAPI-1 or 1% 4-methoxybenzohydroxamic acid. It counts as in vivo, hairless mouse (HR-1). As to the method: The anti-wrinkling effects of TAPI-1 and 4-methoxybenzohydroxamic acid acting as the ADAM activity inhibiting substances were studied by use of the finely wrinkled mouse model.
Specifically, on the skin on the left side of the dorsal section of a hairless mouse (HR-1, male, six weeks of age, supplied by Hoshino Experimental Animals), the tape stripping was performed in three stages per week and was continued for four weeks such that the transepidermal water loss (TEWL) (as measured by use of a water evaporation quantity measuring apparatus MEECO, supplied by Meeco Co., U.S.A) might fall within the range of 4 mg/cm^2/h to 8 mg/cm^2/h. Immediately after each stage of the tape stripping processing had been performed, 100 μl of TAPI-1 or 4-methoxybenzohydroxamic acid was applied to the skin on the left side of the dorsal section of the mouse. At this time, 4-methoxybenzohydroxamic acid was dissolved in a 50% aqueous ethanol solution such that the concentration of 4-methoxybenzohydroxamic acid might become equal to 1%, and 4-methoxybenzohydroxamic acid was used in the form of the resulting solution. Also, TAPI-1 (supplied by Peptide Research Institute) was evaluated at a concentration of 1 mM. Further, as a negative control, a 50% aqueous ethanol solution (i.e., a vehicle) was applied in the same manner as that described above.
The state of occurrence of wrinkles after a period of four weeks had elapsed was expressed by scores with visual judgment. The state of occurrence of wrinkles was evaluated with the rating described below. • 0: No wrinkle • 1: shallow wrinkles • 2: clear wrinkles • 3: Deep wrinkles The state of occurrence of wrinkles was expressed by the scores at intervals of 0.5. A larger score represents deeper wrinkles. The mean value and the standard deviation of each group were calculated. The results illustrated in FIG. 5 were obtained.
Thereafter, the replicas of the dorsal section of the mouse were analyzed by use of a wrinkle analyzing apparatus (supplied by Hamano Engineering), and the wrinkle area (%) was calculated. A low wrinkle area percentage represents that the wrinkle formation has been suppressed. The results illustrated in FIG. 6 were obtained.

For experiment [2], the system named is finely wrinkled mouse model. Description: Anti-wrinkling effects of medicine application on finely wrinkled mouse model (tape stripping). As to conditions: for Dermal hyperplasia suppressing effects / Epidermal hyperplasia suppressing effects / Wrinkling suppressing effects: 100 μl applied to skin after each tape stripping, 2 mM TAPI-1, 1% CGS27023A, 10% glycerol, 1% oleic acid; for Dermal hyperplasia suppressing effects / Epidermal hyperplasia suppressing effects: four weeks, HE-stained slices; for Wrinkling suppressing effects: up to four weeks; for hyperplasia of the epidermis and the dermis (in words) / wrinkle formation (in words): finely wrinkled mouse model, topical application. Also noted: key to Wrinkling suppressing effects / Epidermal hyperplasia suppressing effects / Dermal hyperplasia suppressing effects: O: Remedied.; Δ: No alteration was found.; x: Aggravated. It counts as in vivo, hairless mouse (HR-1). How it is done:
It is considered that, in cases where the skin barrier is weakened or disrupted by various primary factors, such as a decrease in sebum and face washing, and water evaporation from the skin surface increases, the skin dries, and the fine wrinkles are formed. Therefore, tape stripping was repeatedly performed on the skin of a hairless mouse, the stratum corneum of thus peeled off, and the skin barrier was broken. In this manner, a finely wrinkled mouse model was prepared. Specifically, the tape stripping with cellophane adhesive tapes was performed on the skin on the left side of the dorsal section of a hairless mouse (HR-1, male, six weeks of age, supplied by Hoshino Experimental Animals) with the number of times of the tape stripping being adjusted such that a transepidermal water loss (TEWL) (as measured by use of a water evaporation quantity measuring apparatus MEECO, supplied by Meeco Co., U.S.A) might fall within the range of 4 mg/cm^2/h to 6 mg/cm^2/h. Ordinarily, at the initial stage, the tape stripping was iterated approximately four times. At the final stage, the tape stripping was iterated seven to eight times. The tape stripping was performed in three stages per week and was continued for four weeks. The right side of the dorsal section of the hairless mouse was left to stand as a non-treatment area. Studies were made with respect to the anti-wrinkling effects of the application of various medicines, which were listed in Table 2 below, on the finely wrinkled mouse model. Specifically, the tape stripping was performed on a hairless mouse in the manner described above. After each tape stripping processing, 100 μl of each of the medicines listed in Table 2 was applied to the skin of the hairless mouse. FIG. 4A is a diagram showing replica images of skins having been applied with different medicines in the finely wrinkled mouse model, which replica images have been taken at stages one week, two weeks, and four weeks after the application of each of the medicines. FIG. 4B is a diagram showing microscopic photographs of skin tissue slices of the skins at the stage four weeks after the application of each of the medicines, which skin tissue slices have been stained with HE (hematoxylin-eosin).

The test system of the next experiment is Photo-aged mouse model. Kind of experiment: Wrinkle formation in Photo-aged mouse model (UV light irradiation). The experiment is classed as in vivo. As to the method: FIG. 2A is a diagram showing replica images of the mouse skin having been subjected to the tape stripping in the manner described above. FIG. 2B is a diagram showing microscopic photographs of a skin tissue slice of the mouse skin, which skin tissue slice has been stained with HE (hematoxylin-eosin). As illustrated in the replica images (FIG. 2A), skin ditches became deep at the stage 24 hours (24 h) after the beginning of the tape stripping and at the stage 48 hours (48 h) after the beginning of the tape stripping. At the stage one week (1 W) after the beginning of the tape stripping, the directions of the skin ditches coincided with predetermined directions. At the stage four weeks (4 W) after the beginning of the tape stripping, a wrinkle-like appearance occurred. […] At the stage two weeks (2 W) after the beginning of the tape stripping, the epidermal hyperplasia was kept. Table 1 shown below lists morphological alterations, histological alterations, and the like, of the finely wrinkled mouse model having been prepared in the manner described above together with the morphological alterations, histological alterations, and the like, of a Photo-aged mouse model having been prepared with UV light irradiation (for 10 weeks).

In the case of `COc1ccc(C(=O)NO)cc1` [4-Methoxybenzohydroxamic acid], the “Inhibition rate (%) of HB-EGF release” value in the experiment on ADAM enzyme (concentration 10 μg/ml) turned out to be 14.8%; in the experiment with ADAM enzyme (concentration 50 μg/ml), 55.8%. In addition, the “mean value of the wrinkle score (visual judgment, 0 no wrinkle to 3 deep wrinkles)” value in experiment [1] is reported as 0.91. Further, in experiment [1], the “mean value of the wrinkle area (%) versus vehicle” value is on record as “significantly lower”.
On to `COc1ccc(S(=O)(=O)N(Cc2cccnc2)[C@@H](C(=O)NO)C(C)C)cc1` [CGS27023A], for which, in experiment [2], the “Dermal hyperplasia suppressing effects” value is “Δ”; the “Epidermal hyperplasia suppressing effects” value was “Δ”; the Wrinkling suppressing effects entry is reported as “Δ”; the “hyperplasia of the epidermis and the dermis (in words)” value (“hyperplasia … (in words)” for short) is “not capable of suppressing the hyperplasia of the epidermis and the dermis”. Besides, in experiment [2], the “wrinkle formation (in words)” value is “not capable of suppressing the wrinkle formation at all”. Further, the “wrinkle formation preventing effects (in words)” value with Photo-aged mouse model is “exhibited the wrinkle formation preventing effects”.
Consider `OCC(O)CO` [Glycerol], for which, in experiment [2], the “Dermal hyperplasia suppressing effects” value was “Δ”; the “Epidermal hyperplasia suppressing effects” value is on record as “x”; the Wrinkling suppressing effects entry is on record as “Δ”; the “hyperplasia … (in words)” value is “not capable of suppressing the hyperplasia of the epidermis and the dermis”. In addition, in experiment [2], the “wrinkle formation (in words)” value is listed as “not capable of suppressing the wrinkle formation at all”.
Regarding `CCCCCCCC/C=C\CCCCCCCC(=O)O` [Oleic acid], in experiment [2], the “Dermal hyperplasia suppressing effects” value is “x”; the “Epidermal hyperplasia suppressing effects” value was “x”; the Wrinkling suppressing effects result was “x”; the “hyperplasia … (in words)” value is “accelerated the hyperplasia of the epidermis and the dermis”. The “wrinkle formation (in words)” value in experiment [2] is recorded as “promoted the wrinkle formation”.
On to `CC(C)C[C@H](CC(=O)NO)C(=O)N[C@@H](Cc1ccc2ccccc2c1)C(=O)N[C@@H](C)C(=O)NCCN` [TAPI-1, N—(R)-(2-(Hydroxyaminocarbonyl)methyl)-4-Methylpentanoyl-L-Nal-L-Alanine 2-Aminoethyl amide], for which, in experiment [2], the “Dermal hyperplasia suppressing effects” value is given as “∘”; the “Epidermal hyperplasia suppressing effects” value is listed as “∘”; the Wrinkling suppressing effects result is “∘”; the “hyperplasia … (in words)” value is “markedly suppressed the hyperplasia of the epidermis and the dermis”. In experiment [2], the “wrinkle formation (in words)” value is on record as “suppressed the wrinkle formation”. Further, in experiment [1], the “mean value of the wrinkle score (visual judgment, 0 no wrinkle to 3 deep wrinkles)” value amounted to 0.43 and the “mean value of the wrinkle area (%) versus vehicle” value was “significantly lower”.
